Reference: publication PMC13192270, “RhlR quorum-sensing receptor ligand sensitivity regulates the differential expression of phenazine genes in Pseudomonas aeruginosa” (Journal of Bacteriology, 2026)

Tested on: ΔrhlI strain expressing RhlR T58L
Assay: RNA-seq gene expression
Type: cell-based, Pseudomonas aeruginosa
Set-up: opmD Expression value / mexI Expression value / mexH Expression value / mexG Expression value / lasB Expression value / rhlA Expression value / rhlB Expression value / rhlR Expression value / lecB Expression value / fhp Expression value / chiC Expression value / hcnA Expression value / mvfR Expression value / katB Expression value / norC Expression value / norB Expression value / katA Expression value: unit not given here
Details: 2 µM C4HSL
Experimental: To determine the effects of hypo- and hypersensitivity to C4HSL on RhlR-dependent transcription activation in P. aeruginosa, we performed RNA-seq on ΔrhlI strains expressing WT RhlR, RhlR T58L, and RhlR A44M in the presence of 2 µM C4HSL. We chose this approach to better control the levels of C4HSL across samples. All gene expression analyses were done relative to a ΔrhlI strain without exogenous supplementation of AHL. Thus, we examined the total increase in C4HSL-dependent gene regulation. We observed increased rhlA RNA levels in strains expressing WT RhlR and the RhlR T58L variant compared to ΔrhlI without C4HSL or a strain expressing the RhlR A44M variant (Table 2; Table S1). […] To corroborate our RNA-seq data, we built an rhlA promoter fusion to mScarlet and assayed reporter levels in the same genetic backgrounds as our transcriptomic experiment (Fig. S7D). Strains expressing hypersensitive RhlR variants produced similar levels of fluorescent signal relative to the WT strain, while a strain expressing a hyposensitive RhlR variant had diminished levels of fluorescent reporter (Fig. S7D).
A total of […] of overnight cultures was back diluted 1:100 in 20 mL of fresh LB media and incubated for 5 h at 37°C with shaking. Cells were harvested by centrifugation, and pellets were frozen until RNA extraction. RNA was extracted using the Invitrogen PureLink RNA Mini Kit. Pellets were resuspended in 100 µL lysozyme solution containing 10 mM Tris-HCl pH 8.0, 0.1 mM EDTA, and 1 mg/mL lysozyme. Five microliters of 1% SDS was added, and the solution was mixed with a vortex and incubated at room temperature for 5 min. A total of 350 µL lysis buffer (Invitrogen) was added with 10 µL 2-mercaptoethanol for each 1 mL of lysis buffer and vortexed. Cells were lysed by bead beating (BioSpec 0.1 MM Zirconia/Silica Beads) for two rounds of 50 s. Lysed cells were transferred to fresh microcentrifuge tubes with 250 µL of 100% ethanol and mixed with a vortex. Samples were spun in spin cartridges (Invitrogen) at 12,000 × g for 15 s at room temperature, and the flow-through was discarded. A total of 700 µL Wash Buffer I (Invitrogen) was added and spun at 12,000 × g for 15 s at room temperature, and the flow-through was discarded. A total of 500 µL Wash Buffer II (Invitrogen) with ethanol was added and centrifuged for 12,000 × g for 15 s at room temperature; the flow-through was discarded, and RNA samples were washed again. Cells were spun at 12,000 × g for 1 min at room temperature to dry the membrane with the bound RNA. A total of 50 µL RNAse-free water was added to the center of the spin cartridge, incubated at room temperature for 1 min, and centrifuged for 2 min at ≥12,000 × g at room temperature. Extracted RNA was then frozen at −80°C until further use.
Bulk RNA was sent to SeqCenter (Pittsburgh, PA) where it was processed for paired-end Illumina sequencing via rRNA depletion using Ribo-Zero Plus (Illumina). Fastq files generated by SeqCenter were processed using Rockhopper with default settings ([61][–][63]). Briefly, fastq files were aligned to the genome of Pseudomonas aeruginosa UCBPP-PA14. The reads were subsequently normalized using upper-quartile normalization, and transcript abundance was determined by reads per kilobase per million mapped reads. Differential gene expression analysis was conducted using a negative binomial distribution model, outputting a P-value for each transcript. The P-values were then corrected for false discovery using the Benjamini-Hochberg procedure, resulting in the q-values reported here (Table S2). SignalMap v2.0 (NimbleGen Systems) was used to visualize read counts for phzABCDEFG1/2, phzH, phzM, and phzS (Fig. 5). Aligned sequences generated in Rockhopper were converted to GFF files, and genes of interest were isolated into unique GFF files ([37]).

CCCC(=O)N[C@H]1CCOC1=O [C4HSL, N-butyryl-L-homoserine lactone]
chiC Expression value: 3,615,357
fhp Expression value: 396,561.5
hcnA Expression value: 9,523
katA Expression value: 12,151,161
katB Expression value: 2,895,168
lasB Expression value: 19,328,123.5
lecB Expression value: 250,651
mexG Expression value: 332,571.5
mexH Expression value: 723,774.5
mexI Expression value: 830,527.5
mvfR Expression value: 267,969
norB Expression value: 7,897,306
norC Expression value: 3,026,578.5
opmD Expression value: 525,347
phnA Expression value: 1,406,882.5
phnB Expression value: 434,424
phzA1 Expression value: 6,068
phzA2 Expression value: 61,057.5
phzB1 Expression value: 73,793
phzB2 Expression value: 1,991,168
phzC1 Expression value: 272,395.5
phzC2 Expression value: 1,969,682.5
phzD1 Expression value: 1,058,250
phzD2 Expression value: 977,075.5
phzE1 Expression value: 2,058,712.5
phzE2 Expression value: 1,532,300.5
phzF1 Expression value: 1,047,752.5
phzF2 Expression value: 1,048,278.5
phzG1 Expression value: 312,421.5
phzG2 Expression value: 1,165,545
phzM Expression value: 79,302.5
phzS Expression value: 377,065.5
pqsA Expression value: 870,485.5
pqsB Expression value: 2,171,803.5
pqsC Expression value: 2,097,049
pqsD Expression value: 2,742,260
pqsE Expression value: 1,483,216.5
rhlA Expression value: 879,447.5
rhlB Expression value: 741,717
rhlR Expression value: 906,213
chiC Log2fold change (vs ΔrhlI without AHL): 4.706
fhp Log2fold change (vs ΔrhlI without AHL): 5.681
hcnA Log2fold change (vs ΔrhlI without AHL): −1.753
katA Log2fold change (vs ΔrhlI without AHL): 1.97
katB Log2fold change (vs ΔrhlI without AHL): 7.877
lasB Log2fold change (vs ΔrhlI without AHL): 2.595
lecB Log2fold change (vs ΔrhlI without AHL): −0.51
mexG Log2fold change (vs ΔrhlI without AHL): 6.357
mexH Log2fold change (vs ΔrhlI without AHL): 6.234
mexI Log2fold change (vs ΔrhlI without AHL): 5.568
mvfR Log2fold change (vs ΔrhlI without AHL): 0.187
norB Log2fold change (vs ΔrhlI without AHL): 7.599
norC Log2fold change (vs ΔrhlI without AHL): 7.238
opmD Log2fold change (vs ΔrhlI without AHL): 6.207
phnA Log2fold change (vs ΔrhlI without AHL): −0.7187
phnB Log2fold change (vs ΔrhlI without AHL): −0.4007
phzA1 Log2fold change (vs ΔrhlI without AHL): −2.305
phzA2 Log2fold change (vs ΔrhlI without AHL): 2.537
phzB1 Log2fold change (vs ΔrhlI without AHL): −2.194
phzB2 Log2fold change (vs ΔrhlI without AHL): 3.237
phzC1 Log2fold change (vs ΔrhlI without AHL): 0.3098
phzC2 Log2fold change (vs ΔrhlI without AHL): 3.428
phzD1 Log2fold change (vs ΔrhlI without AHL): 2.278
phzD2 Log2fold change (vs ΔrhlI without AHL): 2.374
phzE1 Log2fold change (vs ΔrhlI without AHL): 2.344
phzE2 Log2fold change (vs ΔrhlI without AHL): 2.345
phzF1 Log2fold change (vs ΔrhlI without AHL): 2.194
phzF2 Log2fold change (vs ΔrhlI without AHL): 2.188
phzG1 Log2fold change (vs ΔrhlI without AHL): 0.6164
phzG2 Log2fold change (vs ΔrhlI without AHL): 3.389
phzM Log2fold change (vs ΔrhlI without AHL): −2.128
phzS Log2fold change (vs ΔrhlI without AHL): −0.989
pqsA Log2fold change (vs ΔrhlI without AHL): −1.603
pqsB Log2fold change (vs ΔrhlI without AHL): −0.7949
pqsC Log2fold change (vs ΔrhlI without AHL): −0.8699
pqsD Log2fold change (vs ΔrhlI without AHL): −0.6876
pqsE Log2fold change (vs ΔrhlI without AHL): −0.7631
rhlA Log2fold change (vs ΔrhlI without AHL): 1.8
rhlB Log2fold change (vs ΔrhlI without AHL): 2.488
rhlR Log2fold change (vs ΔrhlI without AHL): 0.5062
